Source: patent publication US9353081B2, “Bicyclic dihydroquinoline-2-one derivatives” (Hoffmann-La Roche Inc., priority 2011, dated 2016)
Where a name gives a salt, the structure may show the parent alone.

Legend:
[1] = system: patients with primary aldosteronism; conditions: cited from earlier work
[2] = system: rat model of chronic kidney disease; conditions: cited from earlier work; for plasma aldosterone: FAD286: 4 weeks of treatment, spironolactone: 4 and 8 weeks of treatment; for angiotensin II and salt-stimulated PAI-1 mRNA expression in the aorta and the heart / cardiac and aortic medial hypertrophy / renal effects of angiotensin II and high salt (albuminuria, azotemia, renovascular hypertrophy, glomerular injury, PAI-1 and osteopontin mRNA, tubulointerstitial fibrosis): rat CKD model
[3] = system: rats with experimental heart failure; conditions: cited from earlier work
human CYP11B2 = human CYP11B2 (Homo sapiens (Human), UniProt P19099); assay: G-402 cellular enzyme assay, human CYP11B2 (aldosterone release, HTRF); type: cell-based; conditions: G-402 cells expressing human CYP11B2; 1 μM Deoxycorticosterone
Chain of human CYP11B2 (P19099 25-503): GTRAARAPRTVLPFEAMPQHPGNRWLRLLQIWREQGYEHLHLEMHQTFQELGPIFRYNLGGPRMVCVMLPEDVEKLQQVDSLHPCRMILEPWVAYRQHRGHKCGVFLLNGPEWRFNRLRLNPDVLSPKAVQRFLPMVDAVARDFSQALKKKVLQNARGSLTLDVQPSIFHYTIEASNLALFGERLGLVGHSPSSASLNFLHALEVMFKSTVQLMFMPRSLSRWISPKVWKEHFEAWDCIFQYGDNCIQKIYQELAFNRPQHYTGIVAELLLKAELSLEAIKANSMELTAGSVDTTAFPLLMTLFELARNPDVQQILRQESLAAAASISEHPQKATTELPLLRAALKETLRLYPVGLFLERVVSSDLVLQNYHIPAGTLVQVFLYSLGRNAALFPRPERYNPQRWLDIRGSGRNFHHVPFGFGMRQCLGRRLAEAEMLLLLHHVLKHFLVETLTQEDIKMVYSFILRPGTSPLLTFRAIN

human CYP11B1 = human CYP11B1 (Homo sapiens (Human), UniProt P15538); assay: G-402 cellular enzyme assay, human CYP11B1 (cortisol release, HTRF); type: cell-based; conditions: G-402 cells expressing human CYP11B1; 1 μM Deoxycortisol
Chain of human CYP11B1 (P15538 25-503): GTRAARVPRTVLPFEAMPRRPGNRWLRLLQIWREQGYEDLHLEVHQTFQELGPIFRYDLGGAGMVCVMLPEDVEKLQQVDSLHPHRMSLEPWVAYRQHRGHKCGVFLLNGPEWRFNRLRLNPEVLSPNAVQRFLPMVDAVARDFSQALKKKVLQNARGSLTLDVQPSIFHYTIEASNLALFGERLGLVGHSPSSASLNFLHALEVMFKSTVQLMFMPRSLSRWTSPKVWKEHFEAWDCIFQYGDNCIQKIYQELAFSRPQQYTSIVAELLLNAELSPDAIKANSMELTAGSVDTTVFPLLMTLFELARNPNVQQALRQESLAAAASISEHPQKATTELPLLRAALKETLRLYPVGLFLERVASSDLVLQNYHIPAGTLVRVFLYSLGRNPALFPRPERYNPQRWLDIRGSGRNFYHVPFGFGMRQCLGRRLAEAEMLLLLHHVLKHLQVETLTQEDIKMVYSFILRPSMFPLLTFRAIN

N#Cc1ccc([C@H]2CCc3cncn32)c(F)c1 [LCI699]
blood pressure [1]: mildly decreased
hypokalemia [1]: corrected
selectivity (effects on the glucocorticoid axis, cortisol synthesis) [1]: poor selectivity
circulating aldosterone levels ([1]; oral): significantly lower

CC(=O)S[C@@H]1CC2=CC(=O)CC[C@]2(C)[C@H]2CC[C@@]3(C)[C@@H](CC[C@@]34CCC(=O)O4)[C@H]12 [spironolactone]
plasma aldosterone [2]: increased
angiotensin II and salt-stimulated PAI-1 mRNA expression in the aorta and the heart [2]: enhanced
cardiac and aortic medial hypertrophy [2]: attenuated
renal effects of angiotensin II and high salt (albuminuria, azotemia, renovascular hypertrophy, glomerular injury, PAI-1 and osteopontin mRNA, tubulointerstitial fibrosis) [2]: prevented these renal effects

N#Cc1ccc(C2CCCc3cncn32)cc1 (stereo not shown) [FAD286]
plasma aldosterone [2]: reduced
angiotensin II and salt-stimulated PAI-1 mRNA expression in the aorta and the heart [2]: not
cardiac and aortic medial hypertrophy [2]: attenuated
renal effects of angiotensin II and high salt (albuminuria, azotemia, renovascular hypertrophy, glomerular injury, PAI-1 and osteopontin mRNA, tubulointerstitial fibrosis) [2]: prevented these renal effects
blood pressure and cardiovascular function and structure [3]: improved
kidney function and morphology [3]: improve

C[C@@H](O)C(=O)NC1CCCc2c(-c3ccc4c(c3)CCC(=O)N4C)cncc21 (stereo partly drawn) [Example 16, (2R)-2-Hydroxy-N-((4R,S)-4-(1-methyl-2-oxo-1,2,3,4-tetrahydroquinolin-6-yl)-5,6,7,8-tetrahydroisoquinolin-8-yl)propanamide]
EC50 (human CYP11B2): 30.8 nM
EC50 (human CYP11B1): 1050 nM

CCS(=O)(=O)NC1CCCc2c(-c3ccc4c(c3)CCC(=O)N4C)cncc21 (single isomer, unassigned; (-)) [Example 5, (−)-(R or S)—N-(4-(1-Methyl-2-oxo-1,2,3,4-tetrahydroquinolin-6-yl)-5,6,7,8-tetrahydroisoquinolin-8-yl)ethanesulfonamide]
EC50 (human CYP11B2): 1290 nM
EC50 (human CYP11B1): 11800 nM

CN1C(=O)CCc2cc(-c3cncc4c3CCCN4CCNC(=O)OC(C)(C)C)ccc21 [Example 11, {2-[5-(1-Methyl-2-oxo-1,2,3,4-tetrahydro-quinolin-6-yl)-3,4-dihydro-2H-[1,7]naphthyridin-1-yl]-ethyl}-carbamic acid tert-butyl ester]
EC50 (human CYP11B2): 23 nM
EC50 (human CYP11B1): 420 nM

CN1C(=O)CCc2cc(-c3cncc4c3CCC[C@H]4N)ccc21 [Example 61, (R)-6-(8-Amino-5,6,7,8-tetrahydroisoquinolin-4-yl)-1-methyl-3,4-dihydroquinolin-2(1H)-one]
EC50 (human CYP11B2): 5.6 nM
EC50 (human CYP11B1): 450 nM

CN1C(=O)CCc2cc(-c3cncc4c3CCCN4CCN)ccc21 [Example 12, 6-[1-(2-Amino-ethyl)-1,2,3,4-tetrahydro-[1,7]naphthyridin-5-yl]-1-methyl-3,4-dihydro-1H-quinolin-2-one hydrochloride]
EC50 (human CYP11B2): 4 nM
EC50 (human CYP11B1): 1880 nM

CCS(=O)(=O)NC1CCCc2c(-c3ccc4c(c3)CCC(=O)N4C)cncc21 (single isomer, unassigned; (+)) [Example 6, (+)-(S or R)—N-(4-(1-Methyl-2-oxo-1,2,3,4-tetrahydroquinolin-6-yl)-5,6,7,8-tetrahydroisoquinolin-8-yl)ethanesulfonamide]
EC50 (human CYP11B2): 48 nM
EC50 (human CYP11B1): 1750 nM

CCC(=O)NC1CCCc2c(-c3cc(Cl)c4c(c3)CCC(=O)N4C)cncc21 (single isomer, unassigned; (+)) [Example 41, (+)-N—[(R or S)-4-(8-Chloro-1-methyl-2-oxo-1,2,3,4-tetrahydro-quinolin-6-yl)-5,6,7,8-tetrahydro-isoquinolin-8-yl]-propionamide]
EC50 (human CYP11B2): 16.6 nM
EC50 (human CYP11B1): 3530 nM

CCC(=O)NC1CCCc2c(-c3ccc4c(c3)CCC(=O)N4C)cncc21 (racemic) [Example 1, (rac)-N-(4-(1-Methyl-2-oxo-1,2,3,4-tetrahydroquinolin-6-yl)-5,6,7,8-tetrahydroisoquinolin-8-yl)propionamide]
EC50 (human CYP11B2): 30 nM
EC50 (human CYP11B1): 2370 nM

C[C@@H](O)C(=O)NC1CCCc2c(-c3ccc4c(c3)CCC(=O)N4C)cncc21 (single isomer, unassigned; (-)) [Example 19, (−)-(2R)-2-Hydroxy-N-((4S or 4R)-4-(1-methyl-2-oxo-1,2,3,4-tetrahydroquinolin-6-yl)-5,6,7,8-tetrahydroisoquinolin-8-yl)propanamide]
EC50 (human CYP11B2): 493 nM
EC50 (human CYP11B1): 13200 nM

CCC(=O)NC1CCCc2c(-c3cc4c(cc3F)N(C)C(=O)CC4)cncc21 (racemic) [Example 28, (rac)-N-[4-(7-Fluoro-1-methyl-2-oxo-1,2,3,4-tetrahydro-quinolin-6-yl)-5,6,7,8-tetrahydroisoquinolin-8-yl]-propionamide]
EC50 (human CYP11B2): 74.9 nM
EC50 (human CYP11B1): 6820 nM
